Assay results taken from patent US12213988B2 (ASTRAZENECA AB, priority 2020, dated 2025).
Read-outs that look alike come from different tables or passages of the source.

Legend:
[1] = tested on: patients with heart failure with reduced ejection fraction
[2] = tested on: patients with chronic kidney disease (CKD)
Description: The study population chosen for this study included a broad population of patients with impaired kidney function. The target population had CKD (defined as eGFR ≥25 and ≤75 mL/min/1.73 m^2) with albuminuria (defined as urine albumin creatinine ratio [UACR]≥200 and ≤5000 mg/g) with or without type 2 diabetes (T2D).
Patients included in the study satisfied the following criteria: • Female or male aged ≥18 years at the time of consent. • eGFR ≥25 and ≤75 mL/min/1.73 m^2 (CKD-EPI Formula) at visit 1. • Evidence of increased albuminuria 3 months or more before visit 1 and UACR ≥200 and ≤5000 mg/g at visit 1. • Stable, and for the patient maximum tolerated labelled daily dose, treatment with ACE-I or ARB for at least 4 weeks before visit 1, if not medically contraindicated.
The primary outcome measure was based on the requirements as outlined in the European Medicines Agency (EMA)'s draft guideline, which states that a composite endpoint of ≥50% sustained decline in eGFR, end stage renal disease (ESRD), and renal death (death due to ESRD when dialysis is not given) are acceptable outcome measures (EMA 2016). This endpoint has also been used in a number of previous outcome studies.
The primary variable was the time to first event included in the primary composite endpoint. The primary analysis was based on the intention to treat (ITT) principle using the FAS.

[3] = tested on: patients with CKD and prediabetes
[4] = tested on: patients with chronic kidney disease (CKD); remark: listed apart in the source
[5] = dapa group, DAPA-HF non-T2D patients
[6] = vs placebo or standard of care CKD agent alone, in words
[7] = vs placebo or standard of care CKD agent alone, in words, listed as Dapagliflozin
[8] = dapagliflozin 10 mg once daily, CKD and prediabetes, median follow-up of 2.4 years
[9] = Dapa 10 mg (N = 2149), on-treatment period per Table 2 footnote
[10] = No diabetes, Dapa 10 mg (N = 696), on- and off-treatment periods
[11] = patients with T2DM, Dapa 10 mg (N = 1453), on- and off-treatment periods

CCOc1ccc(Cc2cc([C@@H]3O[C@H](CO)[C@@H](O)[C@H](O)[C@H]3O)ccc2Cl)cc1 [dapagliflozin]
new-onset diabetes [1, 5]: 4.9% | new-onset diabetes (patients/group) [1, 5]: 64/1298 | HR, new-onset diabetes ([1]; dapa vs placebo, 95% CI, 0.50-0.94, p=0.019, Cox): 0.68 | reduction of new-onset diabetes ([1]; dapa vs placebo, DAPA-HF non-T2D patients): 32% | hazard ratio, primary end point (≥50% sustained decline in eGFR, ESRD, and CV or renal death) ([2]; dapagliflozin vs placebo, 95% CI 0.51 to 0.72, P<0.0001): 0.61 | effect on death from any cause [2, 6]: superior | effect on renal-only secondary endpoint (composite of ≥50% sustained decline in eGFR, ESRD & renal death; renal composite without CV death) [2, 6]: superior | effect on secondary endpoint composite of CV death and hospitalisation for HF [2, 6]: superior | effect on time to first, second, or third hospitalisation for HF (exploratory endpoints) [2, 6]: superior | effect on death from any cause [2, 7]: superior to placebo | effect on renal-only secondary endpoint (composite of ≥50% sustained decline in eGFR, ESRD & renal death; renal composite without CV death) [2, 7]: significant treatment effect | effect on secondary endpoint composite of CV death and hospitalisation for HF [2, 7]: Statistically significant reduction | effect on composite of ≥50% sustained eGFR decline, ESRD, and renal or CV death (primary objective) ([2]; vs placebo, in words): clinically meaningful and statistically significant reduction | T2D developed in [3, 8]: 3.0% | T2D developed in (patients/group) [3, 8]: 21/697 | event rate of newly diagnosed T2D ([3]; dapagliflozin 10 mg once daily, median follow-up of 2.4 years): 1.5 /100-patient years | reduction in T2D incidence ([3]; dapagliflozin vs placebo): 38% | SAE: Infections and infestations ([4]; Dapa 10 mg (N = 2149), on-treatment period): 171 (8.0) Number (%) of subjects | Any AE with outcome = death [4, 9]: 106 (4.9) Number (%) of subjects | Any SAE (including events with outcome = death) [4, 9]: 633 (29.5) Number (%) of subjects | Any AE with outcome = death [4, 10]: 17 (2.4) Number (%) of subjects | Any SAE (including events with outcome = death) [4, 10]: 150 (21.6) Number (%) of subjects | Deaths, SAEs (serious adverse events) and DAEs (discontinuations due to adverse event) ([4]; dapagliflozin group compared with placebo group, in words): fewer | AEs leading to dose reduction ([4]; human, in vivo): few but more common | patients reported SAEs, overall ([4]; human, in vivo): fewer | Any AE with outcome = death [4, 11]: 89 (6.1) Number (%) of subjects | Any SAE (including events with outcome = death) [4, 11]: 483 (33.2) Number (%) of subjects
